Molecules are shown by their SMILES.

This assay deals with T1, ferroportin (Fpn) (Mus musculus, UniProt Q9JHI9).
T1 construct: endogenous in cells; host or cells: J774 mouse macrophage cell line, induced with Fe(III)NTA
T1 sequence (Q9JHI9 1-570): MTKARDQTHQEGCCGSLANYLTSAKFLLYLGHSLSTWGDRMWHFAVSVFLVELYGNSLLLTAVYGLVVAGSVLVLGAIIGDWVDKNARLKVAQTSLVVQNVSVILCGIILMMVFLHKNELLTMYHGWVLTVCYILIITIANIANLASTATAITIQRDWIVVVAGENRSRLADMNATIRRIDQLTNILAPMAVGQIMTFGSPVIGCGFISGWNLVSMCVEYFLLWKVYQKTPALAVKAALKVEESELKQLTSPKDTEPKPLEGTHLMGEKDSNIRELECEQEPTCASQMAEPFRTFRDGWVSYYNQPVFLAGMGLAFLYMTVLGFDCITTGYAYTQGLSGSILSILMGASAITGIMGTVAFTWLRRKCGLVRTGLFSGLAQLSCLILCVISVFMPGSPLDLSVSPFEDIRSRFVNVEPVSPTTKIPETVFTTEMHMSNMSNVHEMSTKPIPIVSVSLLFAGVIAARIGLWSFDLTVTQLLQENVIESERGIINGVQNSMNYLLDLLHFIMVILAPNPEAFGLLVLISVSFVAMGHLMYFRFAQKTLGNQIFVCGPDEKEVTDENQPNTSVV
In words: Hepcidin Internalization Assay (J774). It is filed as cell-based. Conditions: Average (AVE) IC50 of multiple measurements; inhibition of TMR-hepcidin (25 nM) internalization into J774 cells. An excerpt:
This cellular assay allows quantification of the binding of hepcidin to ferroportin (Fpn) through microscopic detection of internalization of a fluorescently labeled hepcidin into J774 cells. […] Binding of hepcidin to Fpn triggers internalization and degradation of both hepcidin and Fpn. […] Therefore, microscopic detection of cell-associated TMR fluorescence is a measure of hepcidin binding to Fpn and internalization of hepcidin and Fpn. If TMR-hepcidin is prevented from binding to Fpn, cellular TMR fluorescence remains low (Durrenberger et al, 2013). The effect of small molecular weight Fpn inhibitor compounds in this assay was evaluated in vitro as described below. […] After removal of the paraformaldehyde solution, cells were washed 3 times with PBS leaving 100 μl per well and the plates were sealed with foil plate seal. TMR (530-550 nm excitation/575-625 nm emission/400 ms exposure time) and Hoechst 33342 (360-370 nm excitation/420-460 nm emission /10 ms exposure time) fluorescence images were acquired using a […] imager (Olympus) with a 20× high NA objective. […] The acquired image data was analysed with the […] analysis software. […] IC50 values were calculated with the Sum(Mean) raw data using “log(inhibitor) vs. response” curve fitting of Prism 5 software (GraphPad Software Inc., version 5.02). For each data set the fit of the “log(inhibitor) vs. response (three parameters)” model was compared to the fit of the “log(inhibitor) vs. response - Variable slope (four parameters)” model and the IC50 data of the preferred model was used.
By IC50 is commonly meant the concentration needed to halve the response being measured. The low end stands for greater potency in that assay, the high end for weaker potency in that assay. Compound `COCCn1c(CCNCCc2nc(C(=O)NCc3ncccc3F)co2)nc2ccccc21` [Example 1, N-((3-fluoropyridin-2-yl)methyl)-2-(2-((2-(1-(2-methoxyethyl)-1 H-benzo[d]imidazol-2-yl)ethyl)amino)ethyl)oxazole-4-carboxamide] yielded an IC50 of 4 nM.
`CCCCn1c(CCNCCc2nc(C(=O)NCc3ncccc3F)co2)nc2ccccc21` [Example 2, 2-(2-((2-(1-butyl-1 H-benzo[d]imidazol-2-yl)ethyl)amino)ethyl)-N-((3-fluoropyridin-2-yl)methyl)oxazole-4-carboxamide]: the IC50 stood at 1 nM.
On to `O=C(NCc1ncccc1F)c1coc(CCNCCc2nc3ccccc3n2Cc2ccccn2)n1` [Example 3, N-((3-fluoropyridin-2-yl)methyl)-2-(2-((2-(1-(pyridin-2-ylmethyl)-1H-benzo[d]imidazol-2-yl)ethyl)amino)ethyl)oxazole-4-carboxamide], for which inhibition was half-maximal at 2 nM (IC50).
The same measure for `Cn1c(CCNCCc2nc(C(=O)NCc3ncccc3F)co2)nc2ccccc21` [Example 5, N-((3-fluoropyridin-2-yl)methyl)-2-(2-((2-(1-methyl-1 H-benzo[d]imidazol-2-yl)ethyl)amino)ethyl)oxazole-4-carboxamide]: 7 nM; for `CCn1c(CCNCCc2nc(C(=O)NCc3ncccc3F)co2)nc2ccccc21` [Example 6, 2-(2-((2-(1-ethyl-1 H-benzo[d]imidazol-2-yl)ethyl)amino)ethyl)-N-((3-fluoropyridin-2-yl)methyl)oxazole-4-carboxamide]: 3.6 nM.
As to `CC(C)Cn1c(CCNCCc2nc(C(=O)NCc3ncccc3F)co2)nc2ccccc21` [Example 8, N-((3-fluoropyridin-2-yl)methyl)-2-(2-((2-(1-isobutyl-1 H-benzo[d]imidazol-2-yl)ethyl)amino)ethyl)oxazole-4-carboxamide], the half-inhibitory concentration (IC50) turned out to be 1.2 nM.
For the compound `CCCCn1c(CCNCCc2nc(C(=O)NCc3ncccc3Cl)co2)nc2ccccc21` [Example 9, 2-(2-((2-(1-butyl-1 H-benzo[d]imidazol-2-yl)ethyl)amino)ethyl)-N-((3-chloropyridin-2-yl)methyl)oxazole-4-carboxamide], the IC50 is 1 nM.
The same measure for `CCCCn1c(CCNCCc2nc(C(=O)NCc3ccccn3)co2)nc2ccccc21` [Example 11, 2-(2-((2-(1-butyl-1 H-benzo[d]imidazol-2-yl)ethyl)amino)ethyl)-N-(pyridin-2-ylmethyl)oxazole-4-carboxamide]: 2 nM; for `O=C(O)Cn1c(CCNCCc2nc(C(=O)NCc3ncccc3F)co2)nc2ccccc21` [Example 14, 2-(2-(2-((2-(4-(((3-fluoropyridin-2-yl)methyl)carbamoyl)oxazol-2-yl)ethyl)amino)ethyl)-1H-benzo[d]imidazol-1-yl)acetic acid]: 126 nM.
`CNC(=O)Cn1c(CCNCCc2nc(C(=O)NCc3ncccc3F)co2)nc2ccccc21` [Example 15, N-((3-fluoropyridin-2-yl)methyl)-2-(2-((2-(1-(2-(methylamino)-2-oxoethyl)-1 H-benzo[d]imidazol-2-yl)ethyl)amino)ethyl)oxazole-4-carboxamide] returned an IC50 of 32 nM.
Then `NC(=O)Cn1c(CCNCCc2nc(C(=O)NCc3ncccc3F)co2)nc2ccccc21` [Example 16, 2-(2-((2-(1-(2-amino-2-oxoethyl)-1H-benzo[d]imidazol-2-yl)ethyl)amino)ethyl)-N-((3-fluoropyridin-2-yl)methyl)oxazole-4-carboxamide], with 181 nM; and `O=C(NCc1ncccc1F)c1coc(CCNCCc2nc3ccccc3n2Cc2ccccc2)n1` [Example 17, 2-(2-((2-(1-benzyl-1 H-benzo[d]imidazol-2-yl)ethyl)amino)ethyl)-N-((3-fluoropyridin-2-yl)methyl)oxazole-4-carboxamide], with 0.8 nM; and `O=C(NCc1ncccc1F)c1coc(CCNCCc2nc3ccccc3n2CCC2CC2)n1` [Example 21, 2-(2-((2-(1-(2-cyclopropylethyl)-1 H-benzo[d]imidazol-2-yl)ethyl)amino)ethyl)-N-((3-fluoropyridin-2-yl)methyl)oxazole-4-carboxamide], with 1 nM.
On to `O=C(NCc1ncccc1F)c1coc(CCNCCc2nc3ccccc3n2CCc2ccccc2)n1` [Example 23, N-((3-fluoropyridin-2-yl)methyl)-2-(2-((2-(1-phenethyl-1 H-benzo[d]imidazol-2-yl)ethyl)amino)ethyl)oxazole-4-carboxamide], for which 1.9 nM corresponded to half-maximal inhibition (IC50).
In turn, `CNC(=O)CCn1c(CCNCCc2nc(C(=O)NCc3ncccc3F)co2)nc2ccccc21` [Example 25, N-((3-fluoropyridin-2-yl)methyl)-2-(2-((2-(1-(3-(methylamino)-3-oxopropyl)-1 H-benzo[d]imidazol-2-yl)ethyl)amino)ethyl)oxazole-4-carboxamide] returned an IC50 of 7 nM.
In turn, `Cc1noc(C)c1CCn1c(CCNCCc2nc(C(=O)NCc3ncccc3F)co2)nc2ccccc21` [Example 30, 2-(2-((2-(1-(2-(3,5-dimethylisoxazol-4-yl)ethyl)-1 H-benzo[d]imidazol-2-yl)ethyl)amino)ethyl)-N-((3-fluoropyridin-2-yl)methyl)oxazole-4-carboxamide] had an IC50 of 1.3 nM.
`O=C(NCc1ncccc1F)c1coc(CCNCCc2nc3ccccc3n2CCc2ncco2)n1` [Example 31, N-((3-fluoropyridin-2-yl)methyl)-2-(2-((2-(1-(2-(oxazol-2-yl)ethyl)-1 H-benzo[d]imidazol-2-yl)ethyl)amino)ethyl)oxazole-4-carboxamide]: the IC50 stood at 2.8 nM.
Regarding `Cn1ccnc1CCn1c(CCNCCc2nc(C(=O)NCc3ncccc3F)co2)nc2ccccc21` [Example 34, N-((3-fluoropyridin-2-yl)methyl)-2-(2-((2-(1-(2-(1-methyl-1 H-imidazol-2-yl)ethyl)-1 H-benzo[d]imidazol-2-yl)ethyl)amino)ethyl)oxazole-4-carboxamide], inhibition was half-maximal at 7.4 nM (IC50).
As to `O=C(NCc1ncccc1F)c1coc(CCNCCc2nc3ccccc3n2CCc2ccccn2)n1` [Example 35, N-((3-fluoropyridin-2-yl)methyl)-2-(2-((2-(1-(2-(pyridin-2-yl)ethyl)-1H-benzo[d]imidazol-2-yl)ethyl)amino)ethyl)oxazole-4-carboxamide], 2 nM corresponded to half-maximal inhibition (IC50).
As for `CCCCn1c(CCNCCc2nc(C(=O)NCc3ncccc3F)co2)nc2cc3c(cc21)OCCO3` [Example 37, 2-(2-((2-(1-butyl-6,7-dihydro-1H-[1,4]dioxino[2′,3′:4,5]benzo[1,2-d]imidazol-2-yl)ethyl)amino)ethyl)-N-((3-fluoropyridin-2-yl)methyl)oxazole-4-carboxamide], half-maximal inhibition (IC50) was put at 0.9 nM.
The same measure for `CCCCn1c(CCNCCc2nc(C(=O)NCc3ncccc3F)co2)nc2cc(-c3ccccc3OC)ccc21` [Example 39, 2-(2-((2-(1-butyl-5-(2-methoxyphenyl)-1 H-benzo[d]imidazol-2-yl)ethyl)amino)ethyl)-N-((3-fluoropyridin-2-yl)methyl)oxazole-4-carboxamide]: 1.7 nM.
`CCCCn1c(CCNCCc2nc(C(=O)NCc3ncccc3F)co2)nc2ccc(-c3ccccc3OC)cc21` [Example 40, 2-(2-((2-(1-butyl-6-(2-methoxyphenyl)-1 H-benzo[d]imidazol-2-yl)ethyl)amino)ethyl)-N-((3-fluoropyridin-2-yl)methyl)oxazole-4-carboxamide] came in with an IC50 of 1.8 nM.
`CCCCn1c(CCNCCc2nc(C(=O)NCc3ncccc3F)co2)nc2ccc(-c3ccccc3)cc21` [Example 41, 2-(2-((2-(1-butyl-6-phenyl-1 H-benzo[d]imidazol-2-yl)ethyl)amino)ethyl)-N-((3-fluoropyridin-2-yl)methyl)oxazole-4-carboxamide] yielded an IC50 of 4 nM.
The compound `CCCCn1c(CCNCCc2nc(C(=O)NCc3ncccc3F)co2)nc2cc(-c3ccccc3)ccc21` [Example 42, 2-(2-((2-(1-butyl-5-phenyl-1 H-benzo[d]imidazol-2-yl)ethyl)amino)ethyl)-N-((3-fluoropyridin-2-yl)methyl)oxazole-4-carboxamide] came in with an IC50 of 2.4 nM.

Source of the values: patent US20240343722A1 (VIFOR (INTERNATIONAL) AG, priority 2021, published 2024).
